Numbering of substitutions follows the chain as printed.
Tests used:
[1] = target: T1, maize endosperm AGPase, wild type (Bt2/Sh2) (Zea mays, UniProt P55241+Q84PF5); experiment: Apparent kinetic constants with 3-PGA, 37° C., wild type; type: biochemical; settings: read-out: ATP Km, Wt
T1 sequence (P55241 46-516): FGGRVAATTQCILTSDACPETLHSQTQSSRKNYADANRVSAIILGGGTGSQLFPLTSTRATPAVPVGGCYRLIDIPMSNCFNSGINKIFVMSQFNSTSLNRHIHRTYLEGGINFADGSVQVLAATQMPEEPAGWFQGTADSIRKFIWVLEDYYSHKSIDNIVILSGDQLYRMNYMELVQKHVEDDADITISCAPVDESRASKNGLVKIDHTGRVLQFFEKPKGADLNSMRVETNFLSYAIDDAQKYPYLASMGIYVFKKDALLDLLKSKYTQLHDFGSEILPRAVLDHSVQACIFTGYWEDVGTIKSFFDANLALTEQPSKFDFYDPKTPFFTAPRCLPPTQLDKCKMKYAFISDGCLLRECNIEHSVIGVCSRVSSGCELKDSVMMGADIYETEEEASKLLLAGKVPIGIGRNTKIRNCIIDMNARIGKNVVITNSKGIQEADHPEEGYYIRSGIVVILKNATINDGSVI
T1 sequence (Q84PF5 1-474): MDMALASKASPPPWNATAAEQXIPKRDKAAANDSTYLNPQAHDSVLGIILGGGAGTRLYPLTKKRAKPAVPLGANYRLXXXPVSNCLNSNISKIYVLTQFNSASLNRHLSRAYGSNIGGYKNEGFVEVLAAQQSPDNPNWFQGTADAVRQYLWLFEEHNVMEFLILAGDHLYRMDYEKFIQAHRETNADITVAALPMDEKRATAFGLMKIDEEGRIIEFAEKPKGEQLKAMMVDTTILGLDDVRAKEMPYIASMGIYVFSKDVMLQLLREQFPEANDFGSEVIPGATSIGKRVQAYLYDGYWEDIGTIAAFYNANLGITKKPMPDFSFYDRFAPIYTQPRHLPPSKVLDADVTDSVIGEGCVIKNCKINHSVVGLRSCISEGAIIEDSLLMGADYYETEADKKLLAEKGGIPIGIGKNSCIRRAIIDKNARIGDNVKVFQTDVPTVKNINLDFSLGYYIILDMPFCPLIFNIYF

[2] = target: T2, maize endosperm AGPase, evolutionary mutant SH2-E (Zea mays, UniProt P55241+Q84PF5); settings: cited from earlier work
T2 construct: data of Boehlein et al., 2013

[3] = test system: maize endosperm AGPase, evolutionary mutant SH2-E (SH2E); settings: presence of 3-PGA, ATP varied, Pi inhibition, NC, read-out: Km (ATP); cited from earlier work
[4] = target: T3, maize endosperm AGPase, large subunit variant RGRR (Q96R, D161G, A443R, S444R; numbering of SEQ ID NO: 20) (Zea mays, UniProt P55241+Q84PF5, A443R/D161G/Q96R/S444R); experiment: Apparent kinetic constants with 3-PGA, 37° C., RGRR; type: biochemical; settings: read-out: ATP Km
T3 sequence (P55241 46-516 A443R/D161G/Q96R/S444R): T1 sequence (P55241 46-516) with Q51R, D116G, A398R, S399R
T3 sequence (Q84PF5 1-474): T1 sequence (Q84PF5 1-474)
Excerpt: The small and large subunit plasmids of maize endosperm AGPase (pMONcBt2 and pMONcSh2, respectively) (Giroux et al., 1996) were expressed in E. coli AC70R1-504 cells (Iglesias et al., 1993) as previously described (Boehlein et al., 2008).
An endpoint assay was used to determine the rate of the AGPase reaction by coupling the formation of PPi to a decrease in NADH concentration (Boehlein et al., 2008). […] The Michaelis constants (Km) were obtained by varying one substrate in the presence of saturating concentrations of the second substrate. The activation constants were obtained by varying the activator at fixed levels of both substrates. All reactions were performed at 37° C. and mixes were prewarmed before starting the reaction with enzyme. […] The absorbance at 340 nm was monitored after 30 min and the amount of PPi produced was determined from a standard curve using PPi in complete reaction mixtures lacking AGPase. Blank samples contained complete reaction mixtures without enzyme and the change in absorbance between the blank and the reaction was used to calculate the amount of PPi produced. […]
The apparent Michaelis constant and maximum velocity of each reaction was calculated from a V vs. S plots using nonlinear regression analysis and the following equation, v=VmaxS/(Km+S), where v is the measured velocity, Vmax is the maximum velocity, S is the substrate concentration. […]

T2 sequence (P55241 46-516, change not shown, one chain of several): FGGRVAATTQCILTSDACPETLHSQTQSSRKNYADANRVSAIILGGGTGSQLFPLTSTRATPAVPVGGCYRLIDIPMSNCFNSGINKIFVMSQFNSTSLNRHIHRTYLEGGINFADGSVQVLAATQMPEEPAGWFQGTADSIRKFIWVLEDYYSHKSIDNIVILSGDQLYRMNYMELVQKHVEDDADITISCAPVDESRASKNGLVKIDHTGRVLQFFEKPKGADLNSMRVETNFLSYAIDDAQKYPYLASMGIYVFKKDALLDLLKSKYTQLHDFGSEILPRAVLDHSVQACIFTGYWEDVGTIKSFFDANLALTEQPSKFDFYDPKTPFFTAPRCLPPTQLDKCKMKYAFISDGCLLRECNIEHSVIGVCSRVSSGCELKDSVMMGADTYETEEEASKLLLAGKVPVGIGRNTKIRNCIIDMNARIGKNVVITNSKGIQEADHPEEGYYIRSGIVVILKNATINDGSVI

Nc1ncnc2c1ncn2[C@@H]1O[C@H](COP(=O)(O)OP(=O)(O)OP(=O)(O)O)[C@@H](O)[C@H]1O [ATP]
Km [1]: 69 µM | kcat ([2]; absence of 3-PGA): 67.6 s⁻¹ | Km ([2]; read-out: ATP Km, absence of 3-PGA): 2530 µM | Kd ([2]; read-out: Kia (dissociation constant for the E-ATP complex), absence of 3-PGA): 5.4 mM | Km [3]: 210 µM | Km [4]: 38 µM

Reference: patent US9650616B2, “Methods for increasing grain yield” (University of Florida Research Foundation, Inc., priority 2014, dated 2017)
